Measured values taken from US20100041089A1, “IMPROVED METHOD FOR DETECTING CHEMICAL […]” (priority 2006, published 2010).

Tested on: yeast genes (expressed mRNA)
Experiment: DNA chip measurement of expressed mRNA of yeast genes after culture with a toxic chemical substance
Assay type: cell-based, Saccharomyces cerevisiae S288C
Experimental: Yeast (Saccharomyces cerevisiae S288C (a SUC2mal mel gap2 CUP1)) were cultured at 25° C. on YPD medium (yeast extract 1%, polypeptone 2%, glucose 2%). One of toxic chemical substances was added to the cell at logarithmic growth phase, and the cell was further cultured for two hours. Cell was cultured without any chemical substance in the same condition, and was used as a control. Concentrations of the chemical substances were defined to inhibit the growth of the yeast but not lead to death.
After the completion of cultivation, the culture was centrifuged to collect the cells. To the cells, sodium acetate buffer (50 mM sodium acetate, 10 mM EDTA, 1% SDS) was added, and the mixture was shaken at 65° C. for five minutes, followed by returning to room temperature, and obtaining the supernatant, which procedure was repeated two times. To the supernatant, ½ amount of a solution of phenol/chloroform (1:1) was added, and the mixture was centrifuged to give a supernatant, an equal amount of chloroform was added, and the mixture was centrifuged to give a supernatant. To the supernatant, an equal amount of isopropanol containing 0.3 M sodium acetate was added, and the mixture was allowed to stand at room temperature for 30 minutes, after which the mixture was centrifuged to give sediment of the whole RNAs. Seventy % ethanol was added to the sediment, and the mixture was again centrifuged to give sediment, which was then dried and dissolved in water. mRNA was isolated from the whole RNAs as followings. In view of the fact that a poly A chain is attached to the 3′ terminus of mRNA, a polynucleotide having a poly T structure which was immobilized on the surface of latex beads was used to trap the mRNA, and then the mRNA was washed and eluted with spine column (Oligotex-dT30<Super>mRNA Purification Kit, Takara). Reverse transcription of the mRNA was conducted with a reverse transcriptase (Super Script II Reverse Transcriptase; catalogue No. 18064-014, GibcoBRL) using fluorescence-labeled nucleotides to give cDNAs that were introduced with Cy3-dUTP or Cy5-dUTP during the reverse transcription.
The labeled cDNAs were dissolved in TE buffer (10 mM Tris-HCl/1 mM EDTA, pH 8.0), and the solution was dropped on the DNA chip containing the whole genes of yeast (DNA Chip Research Inc. Japan) so that the cDNAs were hybridized on the DNA chip at 65° C. for over 12 hours. The fluoresces intensity of the DNA chip was read with a scanner, and the ratio relative to the fluorescence intensity resulting from the absence of chemical substance was estimated as the following, which is shown in Tables 1 to 9.
In the Tables, “Intensity” indicated in the rightmost column is a value of the level of expressed mRNA of each gene in control cells as divided by the average level of the expressions of the whole genes. A gene of which mRNA level is lower in control, and is higher in cases of addition of chemical substance, is especially useful in the detection of toxic substances.
Here, when a ratio of an amount of mRNA expressed in the presence of the chemical substance to an amount of mRNA expressed in the absence of the chemical substance is two or more, then it is considered significant.

## CN(C)C(=S)SSC(=S)N(C)C [(10), Tetramethylthiuram disulfide]
Yeast gene YAL053W, cultured two hours with substance
  The level of expressed mRNA in the presence of chemical substance/The level of expressed mRNA in the absence of chemical substance: 0.9
Yeast gene YAR028W, cultured two hours with substance
  The level of expressed mRNA in the presence of chemical substance/The level of expressed mRNA in the absence of chemical substance: 0.9
Yeast gene YBL043W
  The level of expressed mRNA in the presence of chemical substance/The level of expressed mRNA in the absence of chemical substance: 14.7
Yeast gene YBL048W, cultured two hours with substance
  The level of expressed mRNA in the presence of chemical substance/The level of expressed mRNA in the absence of chemical substance: 4.4
Yeast gene YBL078C
  The level of expressed mRNA in the presence of chemical substance/The level of expressed mRNA in the absence of chemical substance: 15.2
Yeast gene YBL107C, cultured two hours with substance
  The level of expressed mRNA in the presence of chemical substance/The level of expressed mRNA in the absence of chemical substance: 3.1
Yeast gene YBR008C (detoxification protein gene)
  The level of expressed mRNA in the presence of chemical substance/The level of expressed mRNA in the absence of chemical substance: 21.1
Yeast gene YBR008C (transport facilitation protein gene)
  The level of expressed mRNA in the presence of chemical substance/The level of expressed mRNA in the absence of chemical substance: 21.1
Yeast gene YBR046C
  The level of expressed mRNA in the presence of chemical substance/The level of expressed mRNA in the absence of chemical substance: 6.2
Yeast gene YBR072W (stress protein genes)
  The level of expressed mRNA in the presence of chemical substance/The level of expressed mRNA in the absence of chemical substance: 43.4
Yeast gene YBR099C, cultured two hours with substance
  The level of expressed mRNA in the presence of chemical substance/The level of expressed mRNA in the absence of chemical substance: 12.9
Yeast gene YCL027W
  The level of expressed mRNA in the presence of chemical substance/The level of expressed mRNA in the absence of chemical substance: 16.3
Yeast gene YCL069W (detoxification protein gene)
  The level of expressed mRNA in the presence of chemical substance/The level of expressed mRNA in the absence of chemical substance: 6.9
Yeast gene YCL069W (transport facilitation protein gene)
  The level of expressed mRNA in the presence of chemical substance/The level of expressed mRNA in the absence of chemical substance: 6.9
Yeast gene YCR102C, cultured two hours with substance
  The level of expressed mRNA in the presence of chemical substance/The level of expressed mRNA in the absence of chemical substance: 61.5
Yeast gene YDL021W, cultured for two hours with substance
  The level of expressed mRNA in the presence of chemical substance/The level of expressed mRNA in the absence of chemical substance: 7.4
Yeast gene YDL059C, DNA repair protein genes, cultured two hours with substance
  The level of expressed mRNA in the presence of chemical substance/The level of expressed mRNA in the absence of chemical substance: 7.8
Yeast gene YDL072C, cultured two hours with substance
  The level of expressed mRNA in the presence of chemical substance/The level of expressed mRNA in the absence of chemical substance: 1.5
Yeast gene YDL204W, cultured two hours with substance
  The level of expressed mRNA in the presence of chemical substance/The level of expressed mRNA in the absence of chemical substance: 2.0
Yeast gene YDL218W, cultured two hours with substance
  The level of expressed mRNA in the presence of chemical substance/The level of expressed mRNA in the absence of chemical substance: 12.6
Yeast gene YDL222C, cultured two hours with substance
  The level of expressed mRNA in the presence of chemical substance/The level of expressed mRNA in the absence of chemical substance: 1.0
Yeast gene YDL243C
  The level of expressed mRNA in the presence of chemical substance/The level of expressed mRNA in the absence of chemical substance: 29.6
Yeast gene YDL243C, cultured for two hours with substance
  The level of expressed mRNA in the presence of chemical substance/The level of expressed mRNA in the absence of chemical substance: 29.6
Yeast gene YDR031W, cultured two hours with substance
  The level of expressed mRNA in the presence of chemical substance/The level of expressed mRNA in the absence of chemical substance: 2.7
Yeast gene YDR056C, cultured two hours with substance
  The level of expressed mRNA in the presence of chemical substance/The level of expressed mRNA in the absence of chemical substance: 2.3
Yeast gene YDR069C
  The level of expressed mRNA in the presence of chemical substance/The level of expressed mRNA in the absence of chemical substance: 4.5
Yeast gene YDR210W, cultured two hours with substance
  The level of expressed mRNA in the presence of chemical substance/The level of expressed mRNA in the absence of chemical substance: 1.0
Yeast gene YDR258C (stress protein genes)
  The level of expressed mRNA in the presence of chemical substance/The level of expressed mRNA in the absence of chemical substance: 13.3
Yeast gene YDR258C, mitochondria-located protein gene
  The level of expressed mRNA in the presence of chemical substance/The level of expressed mRNA in the absence of chemical substance: 13.3
Yeast gene YDR330W, cultured two hours with substance
  The level of expressed mRNA in the presence of chemical substance/The level of expressed mRNA in the absence of chemical substance: 2.6
Yeast gene YDR353W
  The level of expressed mRNA in the presence of chemical substance/The level of expressed mRNA in the absence of chemical substance: 5.1
Yeast gene YDR391C, cultured two hours with substance
  The level of expressed mRNA in the presence of chemical substance/The level of expressed mRNA in the absence of chemical substance: 2.7
Yeast gene YDR411C, cultured two hours with substance
  The level of expressed mRNA in the presence of chemical substance/The level of expressed mRNA in the absence of chemical substance: 1.0
Yeast gene YDR486C, cultured two hours with substance
  The level of expressed mRNA in the presence of chemical substance/The level of expressed mRNA in the absence of chemical substance: 5.8
Yeast gene YDR511W, cultured two hours with substance
  The level of expressed mRNA in the presence of chemical substance/The level of expressed mRNA in the absence of chemical substance: 2.2
Yeast gene YDR533C, cultured two hours with substance
  The level of expressed mRNA in the presence of chemical substance/The level of expressed mRNA in the absence of chemical substance: 12.7
Yeast gene YDR545W, cultured two hours with substance
  The level of expressed mRNA in the presence of chemical substance/The level of expressed mRNA in the absence of chemical substance: 0.7
Yeast gene YEL001C, cultured two hours with substance
  The level of expressed mRNA in the presence of chemical substance/The level of expressed mRNA in the absence of chemical substance: 1.2
Yeast gene YER004W, cultured two hours with substance
  The level of expressed mRNA in the presence of chemical substance/The level of expressed mRNA in the absence of chemical substance: 2.9
Yeast gene YER035W, cultured two hours with substance
  The level of expressed mRNA in the presence of chemical substance/The level of expressed mRNA in the absence of chemical substance: 1.4
Yeast gene YER038C, cultured two hours with substance
  The level of expressed mRNA in the presence of chemical substance/The level of expressed mRNA in the absence of chemical substance: 2.5
Yeast gene YER069W
  The level of expressed mRNA in the presence of chemical substance/The level of expressed mRNA in the absence of chemical substance: 10.4
Yeast gene YER069W, mitochondria-located protein gene
  The level of expressed mRNA in the presence of chemical substance/The level of expressed mRNA in the absence of chemical substance: 10.4
Yeast gene YER079W, cultured two hours with substance
  The level of expressed mRNA in the presence of chemical substance/The level of expressed mRNA in the absence of chemical substance: 3.4
Yeast gene YER106W, cultured two hours with substance
  The level of expressed mRNA in the presence of chemical substance/The level of expressed mRNA in the absence of chemical substance: 1.8
Yeast gene YER158C, cultured two hours with substance
  The level of expressed mRNA in the presence of chemical substance/The level of expressed mRNA in the absence of chemical substance: 1.6
Yeast gene YER163C, cultured two hours with substance
  The level of expressed mRNA in the presence of chemical substance/The level of expressed mRNA in the absence of chemical substance: 3.4
Yeast gene YER175C, cultured two hours with substance
  The level of expressed mRNA in the presence of chemical substance/The level of expressed mRNA in the absence of chemical substance: 11.5
Yeast gene YFL006W, cultured two hours with substance
  The level of expressed mRNA in the presence of chemical substance/The level of expressed mRNA in the absence of chemical substance: 1.7
